The source made the active and inactive calls. No cut-off for these calls is given here.
Legend:
HeLa = test: Inhibition of protein synthesis in human HeLa cells at 50 to 500 uM pre-incubated for 1 hr before L-[35S]-cysteine and L-[35S]-methionine addition and measured after 1 hr by Comassie staining based autoradiography; format: functional, cell-based
[1] = biological target: T1, 80S Ribosome (Homo sapiens) (UniProt P08865+P42677+P62753+P15880+P23396+P61247+P62701+P22090+P46782+P62081+P62241+P46781+P46783+P62280+P25398+P62277+P62263+P62841+P62244+P62249+P08708+P62269+P39019+P60866+P63220+P62266+P62847+P62851+P62854+P62979+P62857+P62273+P62861+P39023+P36578+P46777+Q02878+P18124+P62424+P62917+P32969+P27635+P62906+P62913+P30050+P26373+P40429+P50914+P61313+P18621+Q07020+Q02543+P84098+P46778+P35268+P62829+P62750+P83731+P61254+P61353+P46776+P46779+P47914+P62888+P62899+P62910+P49207+P42766+P18077+Q9Y3U8+P83881+P61927+P61513+P63173+P62891+P62945+P05388+P05386); test: Binding affinity to 40S ribosomal protein S3a in human Hela cells lysates assessed as protein enrichment by measuring normalized heavy/light ratio at by nano-LC-ESIMS/MS analysis; format: cell-free
[2] = biological target: Stress-70 protein, mitochondrial (Homo sapiens) (UniProt P38646); test: Binding affinity to stress-70 protein in human Hela cells lysates assessed as protein enrichment by measuring normalized heavy/light ratio at by nano-LC-ESIMS/MS analysis; format: cell-free
[3] = biological target: 14-3-3 protein zeta/delta (Homo sapiens) (UniProt P63104); test: Binding affinity to […] zeta/delta in human Hela cells lysates assessed as protein enrichment by measuring normalized heavy/light ratio at by nano-LC-ESIMS/MS analysis; format: cell-free
[4] = biological target: GTP-binding nuclear protein Ran (Homo sapiens) (UniProt P62826); test: Binding affinity to GTP-binding nuclear protein ran in human Hela cells lysates assessed as protein enrichment by measuring normalized heavy/light ratio at by nano-LC-ESIMS/MS analysis; format: cell-free
Oryctolagus cuniculus = organism: Oryctolagus cuniculus; test: Inhibition of protein synthesis in rabbit reticulocytes pre-incubated for 30 mins before labeled-lysine-t-RNA and amino acid mixture addition and measured after 1 hr by luciferase reporter gene assay; format: functional, cell-based
[5] = biological target: Elongation factor 1-delta (Homo sapiens) (UniProt P29692); test: Binding affinity to elongation factor 1-delta in human Hela cells lysates assessed as protein enrichment by measuring normalized heavy/light ratio at by nano-LC-ESIMS/MS analysis; format: cell-free
[6] = biological target: T1, 80S Ribosome (Homo sapiens); test: Binding affinity to 60S ribosomal protein L23 in human Hela cells lysates assessed as protein enrichment by measuring normalized heavy/light ratio at by nano-LC-ESIMS/MS analysis; format: cell-free
[7] = biological target: Glyceraldehyde-3-phosphate dehydrogenase (Homo sapiens) (UniProt P04406); test: Binding affinity to glyceraldehyde-3-phosphate dehydrogenase in human Hela cells lysates assessed as protein enrichment by measuring normalized heavy/light ratio at by nano-LC-ESIMS/MS analysis; format: cell-free
[8] = biological target: Ras-related protein Rab-7a (Homo sapiens) (UniProt P51149); test: Binding affinity to ras-related protein rab-7a in human Hela cells lysates assessed as protein enrichment by measuring normalized heavy/light ratio at by nano-LC-ESIMS/MS analysis; format: cell-free
[9] = Binding affinity to brain acid soluble protein 1 in human Hela cells lysates assessed as protein enrichment by measuring normalized heavy/light ratio at by nano-LC-ESIMS/MS analysis
[10] = biological target: T1, 80S Ribosome (Homo sapiens); test: Binding affinity to 40S ribosomal protein S30 in human Hela cells lysates assessed as protein enrichment by measuring normalized heavy/light ratio at by nano-LC-ESIMS/MS analysis; format: cell-free
[11] = biological target: Elongation factor 1-alpha 1 (Homo sapiens) (UniProt P68104); test: Binding affinity to elongation factor 1-alpha 1 in human Hela cells lysates assessed as protein enrichment by measuring normalized heavy/light ratio at by nano-LC-ESIMS/MS analysis; format: cell-free
[12] = biological target: T1, 80S Ribosome (Homo sapiens); test: Binding affinity to 40S ribosomal protein S18 in human Hela cells lysates assessed as protein enrichment by measuring normalized heavy/light ratio at by nano-LC-ESIMS/MS analysis; format: cell-free
[13] = biological target: T1, 80S Ribosome (Homo sapiens); test: Binding affinity to 60S ribosomal protein L13 in human Hela cells lysates assessed as protein enrichment by measuring normalized heavy/light ratio at by nano-LC-ESIMS/MS analysis; format: cell-free
[14] = biological target: T1, 80S Ribosome (Homo sapiens); test: Binding affinity to ribosomal protein S10 in human Hela cells lysates assessed as protein enrichment by Western blotting analysis; format: cell-free
[15] = biological target: T1, 80S Ribosome (Homo sapiens); test: Binding affinity to 40S ribosomal protein S7 in human Hela cells lysates assessed as protein enrichment by measuring normalized heavy/light ratio at by nano-LC-ESIMS/MS analysis; format: cell-free
[16] = biological target: T1, 80S Ribosome (Homo sapiens); test: Binding affinity to 40S ribosomal protein S4 in human Hela cells lysates assessed as protein enrichment by measuring normalized heavy/light ratio at by nano-LC-ESIMS/MS analysis; format: cell-free
[17] = biological target: T1, 80S Ribosome (Homo sapiens); test: Binding affinity to 40S ribosomal protein S26 in human Hela cells lysates assessed as protein enrichment by measuring normalized heavy/light ratio at by nano-LC-ESIMS/MS analysis; format: cell-free

Sequence of Glyceraldehyde-3-phosphate dehydrogenase (Homo sapiens) (P04406 2-335 limits assumed): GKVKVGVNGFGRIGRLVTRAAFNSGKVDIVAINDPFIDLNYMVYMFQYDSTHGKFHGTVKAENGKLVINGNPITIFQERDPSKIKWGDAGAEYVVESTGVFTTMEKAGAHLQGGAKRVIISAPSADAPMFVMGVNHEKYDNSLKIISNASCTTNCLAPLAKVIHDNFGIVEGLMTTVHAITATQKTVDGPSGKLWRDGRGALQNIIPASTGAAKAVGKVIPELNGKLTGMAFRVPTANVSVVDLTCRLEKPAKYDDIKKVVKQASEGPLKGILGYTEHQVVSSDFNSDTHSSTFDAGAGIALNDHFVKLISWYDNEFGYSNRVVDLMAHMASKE
Sequence of Elongation factor 1-delta (Homo sapiens) (P29692 whole entry): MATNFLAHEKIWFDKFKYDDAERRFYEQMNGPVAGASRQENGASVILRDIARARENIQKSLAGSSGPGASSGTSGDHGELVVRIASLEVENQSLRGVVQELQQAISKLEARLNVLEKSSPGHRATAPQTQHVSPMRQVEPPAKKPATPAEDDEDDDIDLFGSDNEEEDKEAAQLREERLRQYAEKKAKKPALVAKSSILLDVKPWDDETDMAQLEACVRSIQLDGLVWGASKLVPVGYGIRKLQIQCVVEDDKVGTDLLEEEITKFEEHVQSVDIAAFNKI
Sequence of Stress-70 protein, mitochondrial (Homo sapiens) (P38646 whole entry): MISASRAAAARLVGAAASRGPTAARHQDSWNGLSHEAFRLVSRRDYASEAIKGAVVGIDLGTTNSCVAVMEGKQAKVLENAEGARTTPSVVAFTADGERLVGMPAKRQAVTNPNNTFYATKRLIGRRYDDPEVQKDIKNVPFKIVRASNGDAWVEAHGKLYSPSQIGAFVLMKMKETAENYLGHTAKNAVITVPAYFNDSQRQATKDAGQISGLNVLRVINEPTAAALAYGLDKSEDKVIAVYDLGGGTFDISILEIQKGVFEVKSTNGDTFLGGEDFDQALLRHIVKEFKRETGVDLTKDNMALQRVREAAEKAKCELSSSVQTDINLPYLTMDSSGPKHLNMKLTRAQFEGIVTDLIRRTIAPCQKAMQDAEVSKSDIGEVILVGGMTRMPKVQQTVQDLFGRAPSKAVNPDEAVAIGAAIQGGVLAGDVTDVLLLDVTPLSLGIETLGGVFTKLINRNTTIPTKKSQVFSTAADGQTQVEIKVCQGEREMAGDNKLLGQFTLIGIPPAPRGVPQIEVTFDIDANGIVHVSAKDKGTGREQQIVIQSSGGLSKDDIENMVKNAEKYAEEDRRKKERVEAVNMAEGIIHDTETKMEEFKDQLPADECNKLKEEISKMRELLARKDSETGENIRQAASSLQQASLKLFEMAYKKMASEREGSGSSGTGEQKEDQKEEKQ
Sequence of 14-3-3 protein zeta/delta (Homo sapiens) (P63104 whole entry): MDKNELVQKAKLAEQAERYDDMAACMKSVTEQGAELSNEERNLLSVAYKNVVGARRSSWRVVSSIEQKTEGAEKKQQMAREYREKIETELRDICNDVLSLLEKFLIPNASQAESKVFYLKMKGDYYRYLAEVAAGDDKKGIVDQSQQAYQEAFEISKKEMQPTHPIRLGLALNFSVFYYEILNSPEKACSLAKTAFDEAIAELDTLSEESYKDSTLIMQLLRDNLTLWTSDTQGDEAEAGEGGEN
Sequence of Elongation factor 1-alpha 1 (Homo sapiens) (P68104 whole entry): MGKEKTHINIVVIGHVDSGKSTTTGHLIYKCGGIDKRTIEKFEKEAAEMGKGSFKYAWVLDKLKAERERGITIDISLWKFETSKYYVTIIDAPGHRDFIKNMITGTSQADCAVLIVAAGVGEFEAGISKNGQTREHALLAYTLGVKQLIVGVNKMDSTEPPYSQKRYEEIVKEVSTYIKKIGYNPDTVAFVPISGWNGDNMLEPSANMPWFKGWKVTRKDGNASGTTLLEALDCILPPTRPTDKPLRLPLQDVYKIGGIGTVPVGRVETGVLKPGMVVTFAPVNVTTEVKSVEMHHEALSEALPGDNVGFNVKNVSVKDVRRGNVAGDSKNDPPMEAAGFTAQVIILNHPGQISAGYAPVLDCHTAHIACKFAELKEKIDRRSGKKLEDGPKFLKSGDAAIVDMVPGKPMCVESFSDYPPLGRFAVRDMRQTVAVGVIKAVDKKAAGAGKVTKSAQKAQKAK
Sequence of Ras-related protein Rab-7a (Homo sapiens) (P51149 whole entry): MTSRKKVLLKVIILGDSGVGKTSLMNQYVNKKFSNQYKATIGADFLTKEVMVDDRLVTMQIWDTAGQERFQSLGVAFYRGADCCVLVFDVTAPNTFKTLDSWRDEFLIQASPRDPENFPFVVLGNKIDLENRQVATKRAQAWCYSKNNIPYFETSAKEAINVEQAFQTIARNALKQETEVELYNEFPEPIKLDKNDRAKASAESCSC

Ratio [1]: 0.238 | Ratio [2]: 0.751 | Ratio [3]: 0.62 | Ratio [4]: 1.53 | inhibition (Oryctolagus cuniculus): Dose-dependent effect | Ratio [5]: 0.622 | Ratio [6]: 0.527 | Ratio [7]: 0.524 | Ratio [8]: 0.568 | Ratio [9]: 0.744 | Ratio [10]: 0.075 | Ratio [11]: 0.629 | Ratio [12]: 0.448 | Ratio [13]: 0.332 | Activity [14]: Active | Ratio [15]: 0.119 | Ratio [16]: 0.16 | Ratio [17]: 0.158
Structure (SMILES): C/C=C(\C)C(=O)O[C@H]1[C@H](O)[C@]2(COC(C)=O)[C@@H](O)C[C@]3(C)C(=CC[C@@H]4[C@@]5(C)CC[C@H](O[C@@H]6O[C@H](C(=O)O)[C@@H](O)[C@H](O)[C@H]6O)[C@@](C)(CO)[C@@H]5CC[C@]43C)[C@@H]2CC1(C)C
inhibition (HeLa): Dose-dependent effect
